Measurements: US6716812B1, “Modulation of sperm function” (priority 1998, dated 2004)
Positions of bridges follow the written chain, without caps; N, C: chain ends. Non-standard residues stand in square brackets, D forms with d. Residues, ends and D or L forms follow the SMILES beside them. No end group written: not given here. pGlu = O=C1CC[C@@H](C(=O)O)N1

How the values were obtained:
[1] = system: uncapacitated mouse sperm; assay: Chlortetracycline (CTC) fluorescence analysis of capacitation in uncapacitated sperm; type: cell-based; conditions: 40 min incubation
Experimental: The contents of cauda epididymides (3-4 cauda per ml of medium) from mature TO male mice (Harlan Olac, Bicester, U.K.) were released into 2 ml modified Tyrode's medium (Fraser, 1993) in 30 mm sterile culture dishes and allowed to disperse for 5 min. For studies on uncapacitated sperm, suspensions were then filtered through short columns of Sephadex G-25 (medium grade; Pharmacia, Uppsala, Sweden) to remove non-motile cells. Filtered suspensions were aliquotted out to different treatment groups, treated with nothing (control), calcitonin or FPP (as a positive control) and then incubated for 40 min. Salmon calcitonin was used at a final concentration of 5 ng/ml, human calcitonin was used at 200 ng/ml and 20 ng/ml and FPP was used at 100 nM. These short-term incubations were carried out in 0.5 ml plastic microcentrifuge tubes at 37° C. in an atmosphere of 5% CO2, 5% O2, 90% N2. […] Three replicate experiments using uncapacitated sperm were carried out using salmon calcitonin and the higher concentration of human calcitonin (n=3); for the lower concentration of the human hormone, n=2.
(§1) Chlortetracycline (CTC) fluorescence analysis was carried out as described by Green et al. (1994). Assessments were made on an Olympus BX40 microscope equipped with phase contrast and BX-FLA epifluorescence optics using the wide blue-violet excitation cube (U-MWBV). The excitation beam passed through a 400-440 nm band pass filter and CTC fluorescence was observed through a DM 455 dichroic mirror. In each sample, at least 100 sperm were classified as expressing one of three patterns: F, with fluorescence over the entire head, a pattern characteristic of uncapacitated (non-fertilizing), acrosome-intact sperm; B, with a fluorescence-free band in the postacrosomal region, a pattern characteristic of capacitated (potentially fertilizing), acrosome-intact sperm; AR, with dull or absent fluorescence over the whole head, a pattern characteristic of acrosome-reacted (non-fertilizing) sperm.

human sperm [2] = conditions: Green et al., 1996; cited from earlier work
capacitated mouse sperm = assay: Spontaneous acrosome loss in capacitated suspensions (CTC); type: cell-based; conditions: for incidence of spontaneously acrosome-reacted sperm vs untreated control: 40 min after 90 min capacitation
Experimental: as §1
Sperm suspensions were prepared as described earlier for CTC analysis and incubated for 90 min to allow capacitation. Suspensions were then filtered to remove non-motile cells and a sample was stained with CTC (Con-90). The remaining suspension was aliquotted out to different treatment groups and treated for 40 min with nothing (Con-130), 100 nM FPP (positive control), 100 nM FPP+100 ng/ml pertussis toxin (F+PT, negative control), 5 ng/ml salmon calcitonin (CT) and 5 ng/ml salmon calcitonin+100 ng/ml pertussis toxin (CT+PT); (n=3).

mouse sperm = assay: Subjective motility evaluation; type: cell-based; conditions: judged subjectively; concentrations as in the CTC experiments
Text: In all experiments, a drop of each suspension was examined briefly for subjective motility evaluation.

[3] = system: uncapacitated mouse sperm suspensions; assay: In vitro fertilization analysis; type: cell-based; conditions: 40 min preincubation, 65 min coincubation
Experimental: The contents of the cauda epididymides from 2 mature TO male mice were released into 2 ml modified Tyrode's medium in 30 mm sterile culture dishes and allowed to disperse for 5 min. Suspensions were then divided into 3 treatment groups, each in a 30 mm sterile dishes, and treated with nothing (Control) or with calcitonin. As in the CTC experiments, salmon calcitonin was used at a final concentration of 5 ng/ml and human calcitonin at 200 ng/ml. Each suspension was overlaid with autoclaved liquid paraffin and incubated for 40 min at 37° C. in an atmosphere of 5% O2, 5% CO2, 90% N2.
Mature female TO mice were induced to superovulate by intraperitoneal injections of 7.5 IU equine chorionic gonadotrophin and approximately 50 hr later with 5 IU human chorionic gonadotrophin (hCG). Approximately 15 hr post-hCG, oviducts were removed and cumulus masses containing the oocytes were released into medium covered with liquid paraffin. Preincubated sperm suspensions were diluted ^˜10 fold into medium of the same composition used for initial incubation (i.e., without or with calcitonin); 400 μl of diluted suspension were transferred to culture dishes, covered with liquid paraffin and oocytes were added. […]
Oocytes were stained with 0.75% aceto orcein, mounted and assessed (Fraser, 1993). […]

human sperm [4] = conditions: some (higher) concentrations; Gnessi et al, 1984; cited from earlier work
[5] = pertussis toxin at 100 ng/ml, 40 min

## NC(=O)[C@@H]1CCCN1C(=O)[C@H](CCC(=O)O)NC(=O)[C@@H]1CCC(=O)N1 [FPP, pyroglutamylglutamylprolineamide] ([pGlu]-Glu-Pro-NH2)
[1]; 100 nM
  proportion of F pattern cells (uncapacitated, non-fertilizing) vs untreated: significantly lower proportion
[1]; 100 nM, P<0.01, positive control
  proportion of B pattern cells (capacitated, potentially fertilizing) vs untreated: significantly higher proportion
Human sperm [2]
  human sperm fertilizing ability: stimulate human sperm fertilizing ability
Capacitated mouse sperm; 100 nM, P<0.01, n=3, positive control
  incidence of spontaneously acrosome-reacted sperm vs untreated control: significantly lower incidence
Mouse sperm
  sperm motility vs untreated controls: more active motility

## calcitonin
Mouse sperm
  sperm motility vs untreated controls: more active motility

## human calcitonin: 32-amino acid hypocalcemic hormone of human origin (CGNLSTCMLGTYTQDFNKFHTFPQTAIGVGAP-NH2; disulfide 1-7; ends not checked; UniProt P01258 85-116, looked up)
[3]; 200 ng/ml, P<0.05, n=4
  fertilized oocytes obtained vs untreated control sperm: significantly more fertilized oocytes
Human sperm [4]
  effect on human sperm motility: not
[1]; 20 ng/ml
  proportion of F pattern cells (uncapacitated, non-fertilizing) vs untreated: significantly lower proportion
[1]; 20 ng/ml, P<0.025, n=2
  proportion of B pattern cells (capacitated, potentially fertilizing) vs untreated: significantly higher proportion
[1]; 200 ng/ml
  proportion of F pattern cells (uncapacitated, non-fertilizing) vs untreated: significantly lower proportion
[1]; 200 ng/ml, P<0.01, n=3
  proportion of B pattern cells (capacitated, potentially fertilizing) vs untreated: significantly higher proportion

## pertussis toxin
Capacitated mouse sperm; [5]
  effect on the response (inhibition of spontaneous acrosome loss) to 5 ng/ml salmon calcitonin: abolished the responses
  effect on the response (inhibition of spontaneous acrosome loss) to 100 nM FPP: abolished the responses

## salmon calcitonin
[3]; 5 ng/ml, P<0.025, n=4
  fertilized oocytes obtained vs untreated control sperm: significantly more fertilized oocytes
Human sperm [4]
  effect on human sperm motility: negative effect
[1]; 5 ng/ml
  proportion of F pattern cells (uncapacitated, non-fertilizing) vs untreated: significantly lower proportion
[1]; 5 ng/ml, P<0.01, n=3
  proportion of B pattern cells (capacitated, potentially fertilizing) vs untreated: significantly higher proportion
Capacitated mouse sperm; 5 ng/ml, P<0.01, n=3
  incidence of spontaneously acrosome-reacted sperm vs untreated control: significantly lower incidence
